Patent US20070243238A1, “Treating mouth sores with patches adhered to teeth” (priority 2006, published 2007)

Test system: mouth sores
Experiment: Experimentation with amoxicillin on conventional patches for mouth sores
Assay type: in vivo, human
Settings: amoxicillin powder for oral suspension massaged into conventional patch and dried
Text: Because use of antibiotics, antibacterials, and other pharmaceutical antimicrobials causes adverse side effects, experimentation with these medications has been limited. […] Conventional amoxicillin powder for preparation of oral suspension was used, which includes sugars and other excipients. The sugars act as a binder to the oral patch. The oral suspension is massaged into the patch and dried. Preferably, the amoxicillin powder is mixed into a stronger than normal liquid before being added to the patch.

In the case of `CC1(C)S[C@@H]2[C@H](NC(=O)[C@H](N)c3ccc(O)cc3)C(=O)N2[C@H]1C(=O)O` [amoxicillin], the “effect of medication on patch in treating mouth sores” value was “works quite well”.
